# Data as given in ChEMBL document CHEMBL5625164, “Design, synthesis, and evaluation of new anti-inflammatory natural products amide derivatives endowed with anti-blood cancer activity towards development of potential multifunctional agents against hematological cancers” (Eur J Med Chem, 2023).
# Key:
# BV-2 [1] = assay: Anti-inflammatory activity against mouse BV-2 cells assessed as inhibition of LPS-induced PGE2 production pretreated for 2 hrs followed stimulated with LPS for 22 hrs at 10 uM relative to control; assay type: functional; conditions: time 24 hrs
# CCRF-CEM [2] = assay: Anticancer activity against human CCRF-CEM cells assessed as growth inhibition at 10 uM measured after 48 hrs by SRB assay relative to control; assay type: functional; conditions: read-out: GI
# BV-2 [3] = assay: Anti-inflammatory activity against mouse BV-2 cells assessed as inhibition of LPS-induced NO production pretreated for 2 hrs followed stimulated with LPS for 22 hrs by Griess reaction assay; assay type: functional, cell-based
# K562 [4] = assay: Anticancer activity against human K562 cells assessed as growth inhibition at 10 uM measured after 48 hrs by SRB assay relative to control; assay type: functional; conditions: read-out: GI
# SR [5] = assay: Anticancer activity against human SR cells assessed as growth inhibition at 10 uM measured after 48 hrs by SRB assay relative to control; assay type: functional; conditions: read-out: GI
# BV-2 [6] = assay: Anti-inflammatory activity against mouse BV-2 cells assessed as inhibition of LPS-induced TNFalpha production pretreated for 2 hrs followed stimulated with LPS for 22 hrs at 10 uM relative to control; assay type: functional; conditions: time 24 hrs
# BV-2 [7] = assay: Anti-inflammatory activity against mouse BV-2 cells assessed as inhibition of LPS-induced TNFalpha production pretreated for 2 hrs followed stimulated with LPS for 22 hrs; assay type: functional, cell-based
# RPMI-8226 [8] = assay: Anticancer activity against human RPMI-8226 cells assessed as growth inhibition at 10 uM measured after 48 hrs by SRB assay relative to control; assay type: functional; conditions: read-out: GI
# MOLT-4 [9] = assay: Anticancer activity against human MOLT-4 cells assessed as growth inhibition at 10 uM measured after 48 hrs by SRB assay relative to control; assay type: functional; conditions: read-out: GI
# [10] = Cytotoxicity against mouse RAW264.7 cells assessed as macrophage viability at 10 uM relative to control; assay type: toxicity, cell-based; conditions: read-out: Activity
# BV-2 [11] = assay: Anti-inflammatory activity against mouse BV-2 cells assessed as inhibition of LPS-induced NO production at 10 uM pretreated for 2 hrs followed stimulated with LPS for 22 hrs by Griess reaction assay relative to control; assay type: functional; conditions: time 24 hrs
# HL-60 [12] = assay: Induction of apoptosis in human HL-60 cells assessed as total apoptotic cells measured after 24 hrs by annexin V/propidium iodide staining based FACS assay; assay type: functional, cell-based; conditions: dose 10-50 µM
# HL-60 [13] = assay: Induction of cell cycle arrest in human HL-60 cells assessed as accumulation of cells at S phase at 50 uM measured after 24 hrs by propidium iodide staining based flow cytometry (reference value: 13.85%); assay type: functional
# SR [14] = assay: Anticancer activity against human SR cells assessed as growth inhibition measured after 48 hrs by SRB assay relative to control; assay type: functional
# HL-60 [15] = assay: Induction of cell cycle arrest in human HL-60 cells assessed as accumulation of cells at SubG1 phase at 25 uM measured after 48 hrs by propidium iodide staining based flow cytometry (reference value: 4.25%); assay type: functional
# K562 [16] = assay: Anticancer activity against human K562 cells assessed as growth inhibition measured after 48 hrs by SRB assay relative to control; assay type: functional
# HL-60 [17] = assay: Induction of cell cycle arrest in human HL-60 cells assessed as accumulation of cells at SubG1 phase at 50 uM measured after 48 hrs by propidium iodide staining based flow cytometry (reference value: 4.25%); assay type: functional
# CCRF-CEM [18] = assay: Anticancer activity against human CCRF-CEM cells assessed as growth inhibition measured after 48 hrs by SRB assay relative to control; assay type: functional
# HL-60 [19] = assay: Induction of cell cycle arrest in human HL-60 cells assessed as accumulation of cells at G2/M phase at 50 uM measured after 24 hrs by propidium iodide staining based flow cytometry (reference value: 9.01%); assay type: functional
# MOLT-4 [20] = assay: Anticancer activity against human MOLT-4 cells assessed as growth inhibition measured after 48 hrs by SRB assay relative to control; assay type: functional
# RPMI-8226 [21] = assay: Anticancer activity against human RPMI-8226 cells assessed as growth inhibition measured after 48 hrs by SRB assay relative to control; assay type: functional
# HL-60 [22] = assay: Induction of cell cycle arrest in human HL-60 cells assessed as accumulation of cells at SubG1 phase at 50 uM measured after 24 hrs by propidium iodide staining based flow cytometry (reference value: 5.89%); assay type: functional
# HL-60 [23] = assay: Anticancer activity against human HL-60 cells assessed as growth inhibition measured after 48 hrs by SRB assay relative to control; assay type: functional
# HL-60 [24] = assay: Induction of cell cycle arrest in human HL-60 cells assessed as accumulation of cells at S phase at 25 uM measured after 24 hrs by propidium iodide staining based flow cytometry (reference value: 13.85%); assay type: functional
# HL-60 [25] = assay: Induction of cell cycle arrest in human HL-60 cells assessed as accumulation of cells at G0/G1 phase at 50 uM measured after 48 hrs by propidium iodide staining based flow cytometry (reference value: 60.03%); assay type: functional
# HL-60 [26] = assay: Induction of cell cycle arrest in human HL-60 cells assessed as accumulation of cells at G0/G1 phase at 10 uM measured after 24 hrs by propidium iodide staining based flow cytometry (reference value: 66.61%); assay type: functional
# HL-60 [27] = assay: Induction of cell cycle arrest in human HL-60 cells assessed as accumulation of cells at G2/M phase at 25 uM measured after 48 hrs by propidium iodide staining based flow cytometry (reference value: 16.61%); assay type: functional
# HL-60 [28] = assay: Induction of cell cycle arrest in human HL-60 cells assessed as accumulation of cells at G2/M phase at 10 uM measured after 48 hrs by propidium iodide staining based flow cytometry (reference value: 16.61%); assay type: functional
# HL-60 [29] = assay: Induction of apoptosis in human HL-60 cells assessed as early apoptotic cells measured after 24 hrs by annexin V/propidium iodide staining based FACS assay; assay type: functional, cell-based; conditions: dose 10-50 µM
# HL-60 [30] = assay: Induction of cell cycle arrest in human HL-60 cells assessed as accumulation of cells at G0/G1 phase at 25 uM measured after 24 hrs by propidium iodide staining based flow cytometry (reference value: 66.61%); assay type: functional
# HL-60 [31] = assay: Induction of cell cycle arrest in human HL-60 cells assessed as accumulation of cells at S phase at 50 uM measured after 48 hrs by propidium iodide staining based flow cytometry (reference value: 7.16%); assay type: functional
# HL-60 [32] = assay: Induction of cell cycle arrest in human HL-60 cells assessed as accumulation of cells at S phase at 10 uM measured after 48 hrs by propidium iodide staining based flow cytometry (reference value: 7.16%); assay type: functional
# HL-60 [33] = assay: Induction of cell cycle arrest in human HL-60 cells assessed as accumulation of cells at G2/M phase at 50 uM measured after 48 hrs by propidium iodide staining based flow cytometry (reference value: 16.61%); assay type: functional
# HL-60 [34] = assay: Induction of cell cycle arrest in human HL-60 cells assessed as accumulation of cells at G2/M phase at 10 uM measured after 24 hrs by propidium iodide staining based flow cytometry (reference value: 9.01%); assay type: functional
# HL-60 [35] = assay: Induction of cell cycle arrest in human HL-60 cells assessed as accumulation of cells at SubG1 phase at 25 uM measured after 24 hrs by propidium iodide staining based flow cytometry (reference value: 5.89%); assay type: functional
# HL-60 [36] = assay: Induction of cell cycle arrest in human HL-60 cells assessed as accumulation of cells at SubG1 phase at 10 uM measured after 48 hrs by propidium iodide staining based flow cytometry (reference value: 4.25%); assay type: functional
# BV-2 [37] = assay: Anti-inflammatory activity against mouse BV-2 cells assessed as inhibition of LPS-induced PGE2 production pretreated for 2 hrs followed stimulated with LPS for 22 hrs; assay type: functional, cell-based
# HL-60 [38] = assay: Induction of cell cycle arrest in human HL-60 cells assessed as accumulation of cells at G0/G1 phase at 25 uM measured after 48 hrs by propidium iodide staining based flow cytometry (reference value: 60.03%); assay type: functional
# HL-60 [39] = assay: Induction of cell cycle arrest in human HL-60 cells assessed as accumulation of cells at G2/M phase at 25 uM measured after 24 hrs by propidium iodide staining based flow cytometry (reference value: 9.01%); assay type: functional
# HL-60 [40] = assay: Induction of cell cycle arrest in human HL-60 cells assessed as accumulation of cells at G0/G1 phase at 50 uM measured after 24 hrs by propidium iodide staining based flow cytometry (reference value: 66.61%); assay type: functional
# HL-60 [41] = assay: Induction of cell cycle arrest in human HL-60 cells assessed as accumulation of cells at SubG1 phase at 10 uM measured after 24 hrs by propidium iodide staining based flow cytometry (reference value: 5.89%); assay type: functional
# HL-60 [42] = assay: Induction of cell cycle arrest in human HL-60 cells assessed as accumulation of cells at G0/G1 phase at 10 uM measured after 48 hrs by propidium iodide staining based flow cytometry (reference value: 60.03%); assay type: functional
# HL-60 [43] = assay: Induction of cell cycle arrest in human HL-60 cells assessed as accumulation of cells at S phase at 10 uM measured after 24 hrs by propidium iodide staining based flow cytometry (reference value: 13.85%); assay type: functional
# HL-60 [44] = assay: Induction of cell cycle arrest in human HL-60 cells assessed as accumulation of cells at S phase at 25 uM measured after 48 hrs by propidium iodide staining based flow cytometry (reference value: 7.16%); assay type: functional
smiles,measurement,setting,value
COc1cc2c(c(OC)c1OC)C(=O)CC(c1cccc(NC(=O)c3ccccc3Br)c1)O2 (racemic),inhibition at 10 µM,BV-2 [1],39%
same,inhibition of growth at 10 µM,CCRF-CEM [2],26.9%
same,IC50,BV-2 [3],13.3 µM
same,inhibition of growth at 10 µM,K562 [4],29.8%
same,inhibition of growth at 10 µM,SR [5],31.6%
same,inhibition at 10 µM,BV-2 [6],62.4%
same,IC50,BV-2 [7],7.3 µM
same,inhibition of growth at 10 µM,RPMI-8226 [8],41.8%
same,inhibition of growth at 10 µM,MOLT-4 [9],30.4%
same,viability at 10 µM,[10],101%
same,inhibition at 10 µM,BV-2 [11],41.4%
COc1cc2c(c(OC)c1OC)C(=O)CC(c1cccc(NC(=O)c3ccc(Br)cc3)c1)O2 (racemic),Activity,HL-60 [12],Dose-Dependent Effect
same,inhibition at 10 µM,BV-2 [1],61.1%
same,Activity,HL-60 [13],5.77%
same,GI50,SR [14],1340 nM
same,inhibition of growth at 10 µM,CCRF-CEM [2],97.1%
same,Activity,HL-60 [15],74.54%
same,GI50,K562 [16],1420 nM
same,IC50,BV-2 [3],14.7 µM
same,Activity,HL-60 [17],90.39%
same,GI50,CCRF-CEM [18],2620 nM
same,inhibition of growth at 10 µM,K562 [4],94.1%
same,Activity,HL-60 [19],1.8%
same,GI50,MOLT-4 [20],1630 nM
same,GI50,RPMI-8226 [21],1580 nM
same,inhibition of growth at 10 µM,SR [5],96.1%
same,inhibition at 10 µM,BV-2 [6],50%
same,Activity,HL-60 [22],70.09%
same,GI50,HL-60 [23],1640 nM
same,Activity,BV-2 [7]; time 24.0 hrs,Dose-Dependent Effect
same,Activity,HL-60 [24],27.79%
same,Activity,HL-60 [25],3.96%
same,Activity,HL-60 [26],51.19%
same,Activity,HL-60 [27],10.01%
same,Activity,HL-60 [28],26.61%
same,Activity,HL-60 [29],Dose-Dependent Effect
same,inhibition of growth at 10 µM,RPMI-8226 [8],105%
same,Activity,HL-60 [30],2.08%
same,inhibition of growth at 10 µM,MOLT-4 [9],112%
same,Activity,HL-60 [31],1.21%
same,Activity,HL-60 [32],12.39%
same,Activity,HL-60 [33],1.61%
same,Activity,HL-60 [34],5.69%
same,Activity,HL-60 [35],43.13%
same,Activity,HL-60 [36],8.99%
same,IC50,BV-2 [37],9.1 µM
same,Activity,HL-60 [38],5.89%
same,Activity,HL-60 [39],2.22%
same,Activity,HL-60 [40],4.82%
same,Activity,HL-60 [41],6.15%
same,Activity,HL-60 [42],33.83%
same,Activity,HL-60 [43],19.25%
same,viability at 10 µM,[10],106%
same,Activity,HL-60 [44],1.33%
same,inhibition at 10 µM,BV-2 [11],45.2%
